Laboratory results from patent publication US9314530B2, “Composition, in aqueous medium, that comprises at least a hyaluronic acid and at least an hydrosoluble salt of sucrose octasulfate” (LABORATOIRES VIVACY, priority 2012, dated 2016).

What was measured:
Type in all cases: physicochemical
[1] = Stability with regard to steam autoclaving: viscosity of non-crosslinked hyaluronic acid compositions (rheometer)
Protocol: For the compositions according to the invention comprising non-crosslinked hyaluronic acid, the viscosity η of the sterilized compositions after the steam autoclaving step is characterized on a TA Instruments AR 2000 Ex rheometer, under controlled constraint conditions, at 25° C. The viscosity value is recorded at a constraint of 0.02 s^−1.
(§1) For the compositions comprising non-crosslinked hyaluronic acid, the percentage of loss in the viscosity is the value of the difference in the viscosity of the reference composition after steam autoclaving and the viscosity of the composition comprising non-crosslinked hyaluronic acid and a sulphated oligo-polysaccharide or a sulphated monosaccharide after steam autoclaving over the value of the viscosity of the reference composition after steam autoclaving.
(§2) For these all measurements, a reference composition is formulated, the aqueous solution of sulphated oligo-polysaccharide or of sulphated monosaccharide being replaced by the same amount of aqueous solution of phosphate buffer.
Nine compositions comprising non-crosslinked hyaluronic acid and a sulphated oligo-polysaccharide or a sulphated monosaccharide at a concentration of 1 mg/g in the composition are prepared according to the procedure described in Example 1.
A reference composition is also formulated, the aqueous solution of sulphated oligo-polysaccharide or of sulphated monosaccharide being replaced by the same amount of aqueous solution of phosphate buffer.
A series of five compositions comprising non-crosslinked hyaluronic acid, mannitol and a sulphated oligo-polysaccharide or a sulphated monosaccharide at a concentration of 1 mg/g in the composition is prepared according to the procedure described in Example 3.
Examples of tests on formulations of KSOS (at different concentrations) with a non-crosslinked gel of Example 1 at the concentrations and ratios described in Table 7 below.
The gels are sterilized and then characterized by rheology according to Example 8.

[2] = Stability with regard to steam autoclaving: elastic component G′ of crosslinked hyaluronic acid compositions (rheometer)
Protocol: For the compositions according to the invention comprising crosslinked hyaluronic acid, the elastic component G′ of the sterilized compositions after the autoclaving step is characterized on a TA Instruments AR 2000 Ex rheometer, under oscillation conditions, at 25° C., the values of the elastic component being recorded at a frequency of 1 Hz.
as §1, with “crosslinked” for “non-crosslinked”, “elastic component G′” for “viscosity”
as §2
A series of four compositions comprising crosslinked hyaluronic acid, mannitol and a sulphated oligo-polysaccharide or a sulphated monosaccharide at a concentration of 1 mg/g in the composition is prepared according to the procedure described in Example 4.
A reference composition is also formulated, the aqueous solution of sulphated oligo-polysaccharide or of sulphated monosaccharide being replaced by an equivalent amount of aqueous solution of phosphate buffer.
Examples of tests on formulations of KSOS (at different concentrations) with a 20 mg/g crosslinked NaHA gel (IPN-like gel, sold under the Stylage® M brand), which is the reference gel.
The gels are sterilized and then characterized.
The percentage of loss in the elastic component G′ with respect to the reference composition is measured according to Example 8 and the difference between the injectability force, through 30-gauge ½ hypodermic needles, of the reference gel and of the gels comprising potassium sucrose octasulphate is measured.
Example of test on formulation of KSOS with a gel comprising crosslinked hyaluronic acid at the concentration and at the ratio described in Table 8 below.
The gels are prepared according to the procedure described in Example 2 and are then characterized by rheology according to Example 8.

[3] = Solubility of salts of sucrose octasulphate
[4] = after steam autoclaving, non-crosslinked hyaluronic acid + mannitol + sulphated saccharide at 1 mg/g (procedure of Example 3)
[5] = after steam autoclaving, non-crosslinked hyaluronic acid + sulphated saccharide at 1 mg/g (procedure of Example 1), viscosity at 25° C., 0.02 s^−1
[6] = after steam autoclaving, crosslinked hyaluronic acid + mannitol + sulphated saccharide at 1 mg/g (procedure of Example 4), 25° C., 1 Hz

Row | % of loss in the viscosity with respect to the reference composition [1, 4] [%] | % of loss in the viscosity with respect to the reference composition [1, 5] [%] | % of loss in the elastic component G′ with respect to the reference composition [2, 6] [%] | Molecule | also measured
1 | 25 | 87 | 18 | O=S(=O)(O)N[C@H]1C(O)O[C@H](CO)[C@@H](O)[C@@H]1O (stereo partly drawn) [D-Glucosamine-2-sulphate, reference compound] | 
2 | 90 | 98 | 74 | N[C@H]1C(O)O[C@H](COS(=O)(=O)O)[C@@H](O)[C@@H]1O (stereo partly drawn) [D-Glucosamine-6-sulphate, reference compound] | 
3 | 60 | 96 | 32 | CC(=O)N[C@H]1C(O)O[C@H](COS(=O)(=O)O)[C@@H](O)[C@@H]1O (stereo partly drawn) [N-Acetyl-D-glucosamine-6-sulphate, reference compound] | 
4 | 0 | 0 |  | O=S(=O)([O-])OC[C@H]1O[C@@](COS(=O)(=O)[O-])(O[C@H]2O[C@H](COS(=O)(=O)[O-])[C@@H](OS(=O)(=O)[O-])[C@H](OS(=O)(=O)[O-])[C@H]2OS(=O)(=O)[O-])[C@@H](OS(=O)(=O)[O-])[C@@H]1OS(=O)(=O)[O-].[Na+].[Na+].[Na+].[Na+].[Na+].[Na+].[Na+].[Na+] [Sodium sucrose octasulphate] | solubility compared with the potassium salt [3]: greater than that of the potassium salt
5 |  | 62 |  | Chondroitin sulphate [reference compound] | 
6 |  | 16 |  | Dextran sulphate(40000) [reference compound] | 
7 |  | 94 |  | Disulphated carrageenan(disaccharide) [reference compound] | 
8 |  | 92 |  | Hexasulphated carrageenan(hexasaccharide) [reference compound] | 
9 | 0 | 0 | 0 | Potassium sucrose octasulphate | maximum solubility [3]: 40 mg/g; % of loss in the viscosity with respect to the reference composition ([1]; after autoclaving, non-crosslinked NaHA 4 mg/g, KSOS 40 mg/g, [HA]/[SOS] 0.1): 0%; % of loss in the viscosity with respect to the reference composition ([1]; after autoclaving, non-crosslinked NaHA 10 mg/g, KSOS 10 mg/g, [HA]/[SOS] 1): 0%; % of loss in the viscosity with respect to the reference composition ([1]; after autoclaving, non-crosslinked NaHA 10 mg/g, KSOS 20 mg/g, [HA]/[SOS] 0.5): 0%; % of loss in the viscosity with respect to the reference composition ([1]; after autoclaving, non-crosslinked NaHA 20 mg/g, KSOS 10 mg/g, [HA]/[SOS] 2): 0%; % of loss in the viscosity with respect to the reference composition ([1]; after autoclaving, non-crosslinked NaHA 20 mg/g, KSOS 20 mg/g, [HA]/[SOS] 1): 0%; % of loss in the viscosity with respect to the reference composition ([1]; after autoclaving, non-crosslinked NaHA 25 mg/g, KSOS 0.01 mg/g, [HA]/[SOS] 2500): 0%; % of loss in the viscosity with respect to the reference composition ([1]; after autoclaving, non-crosslinked NaHA 25 mg/g, KSOS 0.05 mg/g, [HA]/[SOS] 500): 0%; % of loss in the elastic component G′ with respect to the reference composition ([2]; after autoclaving, crosslinked NaHA 10.3 mg/g, KSOS 25 mg/g, [HA]/[SOS] 0.4 (procedure of Example 2)): 0%; % of loss in the elastic component G′ with respect to the reference composition ([2]; after steam autoclaving, crosslinked hyaluronic acid + mannitol + sulphated saccharide at 1 mg/g (procedure of Example 4), 25° C., 1 Hz, listed as potassium sucrose octasulphate): no loss
